# Source: patent publication US4002530A, “6-Aminopenicillanic acid derivative” (Recherche et Industrie Therapeutiques (R.I.T.), priority 1975, dated 1977)
# Counter-ions that a name gives are not always drawn. Like-named read-outs stand apart in the source and are kept apart here.
# Tests used:
# Proteus morganii = experiment: broth dilution test, minimum inhibitory concentration; type: cell-based; conditions: Morganella morganii, about 20 hours at 35° C, tested as monoammonium salt
# [1] = test system: Staphylococcus aureus Pen.resist.; experiment: as above; type: cell-based; conditions: penicillin resistant, about 20 hours at 35° C, tested as monoammonium salt
# Shigella sonnei = experiment: as above; type: cell-based; conditions: about 20 hours at 35° C, tested as monoammonium salt
# Protocol: (§1) Antibiotic RIT D-2214 has been tested in form of the mono ammonium salt in position 3 of the penam nucleus and, for that reason, is herein below charcterized as this monoammonium salt.
# (§2) The inhibitory levels were determined by the broth dilution test. A series of tubes containing varied concentrations of the monoammonium salt of antibiotic RIT D-2214 were inoculated with the test organism to determine the minimum concentration of the ammonium salt of antibiotic RIT D-2214 in mcg/ml. in the broth substrate which inhibited organism growth for a period of about twenty hours at 35° C.
# Shigella flexneri 25 = experiment: mice protection test; type: in vivo; conditions: Shigella flexneri, 25, sc, 72 h; s.c., one hour after intravenous infection, observed 3 days; read-out: ED50 (total dose required to protect 50% of the infected mice)
# Protocol: (§3) Comparative trials with ampicillin were performed in vivo according to the usual mice protection test procedure. The test compound was administered in graded dilutions to mice either subcutaneously (s.c.) in water or orally (or.) in combination with calcium carbonate one hour after intravenous infection with uniformly lethal doses of the test organism.
# Salmonella panama 20 = experiment: mice protection test; type: in vivo; conditions: Salmonella enterica, 20, sc, 72 h; s.c., one hour after intravenous infection, observed 3 days; read-out: ED50 (total dose required to protect 50% of the infected mice)
# Protocol: as §3
# Proteus mirabilis 11 = experiment: mice protection test; type: in vivo; conditions: Proteus mirabilis, 11, sc, 72 h; s.c., one hour after intravenous infection, observed 3 days; read-out: ED50 (total dose required to protect 50% of the infected mice)
# Protocol: as §3
# Escherichia coli 47 = experiment: mice protection test; type: in vivo; conditions: Escherichia coli, 47, sc, 72 h; s.c., one hour after intravenous infection, observed 3 days; read-out: ED50 (total dose required to protect 50% of the infected mice)
# Protocol: as §3
# [2] = test system: Vibrio parahaemoliticus 194; experiment: mice protection test; type: in vivo; conditions: Vibrio, 194, 72 h; oral with calcium carbonate, one hour after intravenous infection, observed 3 days; read-out: ED50 (total dose required to protect 50% of the infected mice)
# Protocol: as §3
# Escherichia coli 9 = experiment: mice protection test; type: in vivo; conditions: Escherichia coli, 9, sc, 72 h; s.c., one hour after intravenous infection, observed 3 days; read-out: ED50 (total dose required to protect 50% of the infected mice)
# Protocol: as §3
# [3] = test system: Staphylococcus aureus 663; experiment: mice protection test; type: in vivo; conditions: Staphylococcus aureus, 663, sc, 72 h; s.c., one hour after intravenous infection, observed 3 days; read-out: ED50 (total dose required to protect 50% of the infected mice)
# Protocol: as §3
# [4] = test system: Salmonella brandebourg 22; experiment: mice protection test; type: in vivo; conditions: Salmonella, 22, sc, 72 h; s.c., one hour after intravenous infection, observed 3 days; read-out: ED50 (total dose required to protect 50% of the infected mice)
# Protocol: as §3
# [5] = test system: Salmonella enteritidis 24; experiment: mice protection test; type: in vivo; conditions: Salmonella enterica, sc, 72 h, s.c., one hour after intravenous infection, observed 3 days, read-out: ED50 (total dose required to protect 50% of the infected mice)
# Protocol: as §3
# [6] = test system: Klebsiella pneumoniae SK&F 4200; experiment: mice protection test; type: in vivo; conditions: 72 h, one hour after intravenous infection, observed 3 days, read-out: ED50 (total dose required to protect 50% of the infected mice)
# Protocol: as §3
# Klebsiella pneumoniae = experiment: broth dilution test, minimum inhibitory concentration; type: cell-based; conditions: about 20 hours at 35° C, tested as monoammonium salt
# Pseudomonas aeruginosa = experiment: as above; type: cell-based; conditions: about 20 hours at 35° C, tested as monoammonium salt
# in vivo [7] = experiment: in vivo; set-up: species or system mice; conditions: mouse, sc, 20 mg/kg
# From the text: (§4) Plasma samples were adequately diluted with sterile water and assayed according to the usual agar diffusion method, using Bacillus subtilis ATCC 6633 as the test organism.
# Salmonella typhimurium = experiment: broth dilution test, minimum inhibitory concentration; type: cell-based; conditions: Salmonella enterica, about 20 hours at 35° C, tested as monoammonium salt
# physchem = type: physicochemical; conditions: reconstituted gastric juice, pH 1.3
# From the text: Antibiotic RIT D-2214 can be colorimetrically assayed by the classical hydroxylamine method of penicillin assay. […] Recoveries were estimated according to the hydroxylamine assay method.
# Salmonella panama = experiment: broth dilution test, minimum inhibitory concentration; type: cell-based; conditions: Salmonella enterica, about 20 hours at 35° C, tested as monoammonium salt
# Alcaligenes faecalis = experiment: as above; type: cell-based; conditions: about 20 hours at 35° C, tested as monoammonium salt
# in vivo [8] = experiment: in vivo; set-up: species or system rats; conditions: rat, sc, 20 mg/kg
# From the text: as §4
# Salmonella meleagridis = experiment: broth dilution test, minimum inhibitory concentration; type: cell-based; conditions: about 20 hours at 35° C, tested as monoammonium salt
# Brucella abortus = experiment: microbe, parasite or virus in culture; type: cell-based; conditions: 20 h, read-out: Minimum Inhibitory concentration
# [9] = test system: Bordetella bronchiseptica; experiment: broth dilution test, minimum inhibitory concentration; type: cell-based; conditions: about 20 hours at 35° C, tested as monoammonium salt
# in vivo [10] = experiment: in vivo; set-up: species or system dogs; conditions: dog, sc, 20 mg/kg
# From the text: as §4
# Bacillus subtilis = experiment: broth dilution test, minimum inhibitory concentration; type: cell-based; conditions: about 20 hours at 35° C, tested as monoammonium salt
# Salmonella anatum = experiment: as above; type: cell-based; conditions: Salmonella enterica, about 20 hours at 35° C, tested as monoammonium salt
# Corynebacterium xerosis = experiment: as above; type: cell-based; conditions: about 20 hours at 35° C, tested as monoammonium salt
# E. coli Pen. resistant = experiment: as above; type: cell-based; conditions: Escherichia coli, penicillin resistant, about 20 hours at 35° C, tested as monoammonium salt
# Salmonella typhi = experiment: as above; type: cell-based; conditions: Salmonella enterica, 20 h, read-out: Minimum Inhibitory concentration
# [11] = test system: Gram-positive and Gram-negative bacteria; experiment: inhibitory activity against growth of bacteria; type: cell-based; conditions: for inhibitory activity against the growth of bacteria: Gram-positive and Gram-negative bacteria
# Protocol: as §1, §2
smiles,measurement,setting,value
"CC1(C)S[C@@H]2[C@H](NC(=O)[C@H](N)c3ccccc3)C(=O)N2[C@H]1C(=O)O [Ampicillin, ampicillin, reference compound]",MIC,Proteus morganii,20 µg/mL
same,MIC,[1],20 µg/mL
same,MIC,Shigella sonnei,2.5 µg/mL
same,ED50,Shigella flexneri 25,> 100 mg/kg
same,ED50,Salmonella panama 20,22 mg/kg
same,ED50,Proteus mirabilis 11,14.8 mg/kg
same,ED50,Escherichia coli 47,23.6 mg/kg
same,ED50,[2],17.9 mg/kg
same,ED50,Escherichia coli 9,11.5 mg/kg
same,ED50,[3],< 11 mg/kg
same,ED50,[4],36.4 mg/kg
same,ED50,[5],55.6 mg/kg
same,ED50,[6]; oral with calcium carbonate,50.4 mg/kg
same,ED50,"[6]; sc, s.c.",36.7 mg/kg
same,MIC,Klebsiella pneumoniae,40 µg/mL
same,MIC,Pseudomonas aeruginosa,80 µg/mL
same,concentration at 5 min,in vivo [7],6500 ng/mL
same,concentration at 0.25 h,in vivo [7],9000 ng/mL
same,concentration at 0.5 h,in vivo [7],3500 ng/mL
same,concentration at 1 h,in vivo [7],1000 ng/mL
same,MIC,Salmonella typhimurium,40 µg/mL
same,half-life,physchem,6.5 h
same,MIC,Salmonella panama,2.5 µg/mL
same,MIC,Alcaligenes faecalis,1.6 µg/mL
same,concentration at 5 min,in vivo [8],7000 ng/mL
same,concentration at 0.25 h,in vivo [8],13000 ng/mL
same,concentration at 1 h,in vivo [8],5000 ng/mL
same,concentration at 2 h,in vivo [8],2500 ng/mL
same,MIC,Salmonella meleagridis,0.6 µg/mL
same,MIC,Brucella abortus,0.6 µg/mL
same,MIC,[9],0.6 µg/mL
same,concentration at 0.25 h,in vivo [10],13000 ng/mL
same,concentration at 0.5 h,in vivo [10],18000 ng/mL
same,concentration at 1 h,in vivo [10],18000 ng/mL
same,concentration at 2 h,in vivo [10],9000 ng/mL
same,MIC,Bacillus subtilis,0.3 µg/mL
same,MIC,Salmonella anatum,0.6 µg/mL
same,MIC,Corynebacterium xerosis,0.1 µg/mL
same,MIC,E. coli Pen. resistant,80 µg/mL
same,MIC,Salmonella typhi,0.6 µg/mL
"CC1(C)S[C@@H]2[C@H](NC(=O)Cc3ccccc3)C(=O)N2[C@H]1C(=O)O [penicillin G, reference compound]",half-life,physchem,0.117 h
CC1(C)S[C@@H]2[C@H](NC(=O)CSC[C@@H](N)C(=O)O)C(=O)N2[C@H]1C(=O)O [monoammonium salt of antibiotic RIT D-2214],inhibitory activity against the growth of bacteria,[11],strong activity
CC1(C)S[C@@H]2[C@H](NC(=O)CSC[C@H](N)C(=O)O)C(=O)N2[C@H]1C(=O)O,inhibitory activity against the growth of bacteria,[11],active against Grampositive and negative bacteria
same,antibacterial activity relative to another RIT 2214 form,[11]; compared with the RIT 2214 form named in the sentence,less than the monoammonium salt of RIT D-2214
